Measured values taken from patent US20210038545A1 (priority 2018, published 2021).

Tests used:
S. pneumoniae [1] = details: mice colonized with IAV microbiota; 30 hrs after challenge; FIG. 4A
S. pneumoniae [2] = details: IAV (H3N2)-infected mice as printed; acetate from day 2 p.i.; 1×10^3 CFUs at 7 dpi; 30 hrs later; FIG. 4B
S. pneumoniae [3] = details: mouse, in vivo
[4] = tested on: respiratory bacterial (including pneumococcal) and fungal infections; details: Ciarlo et al., 2016; cited from earlier work

SMILES | protective effect of acetate in Ffa2−/− mice (S. pneumoniae serotype 1; Ffa2−/− mice relative to FFA2-competent mice, FIG. 1B) | number of bacteria in the spleen (S. pneumoniae serotype 1; acetate 200 mM drinking water for five days before 1×10^6 CFUs i.n., 30 hours after challenge, FIG. 1A lower panel) | number of bacteria in the lungs (S. pneumoniae serotype 1; acetate 200 mM drinking water for five days before 1×10^6 CFUs i.n., 30 hours after challenge, vs vehicle, FIG. 1A upper panel) | number of pneumococci in lungs (S. pneumoniae [1]) | systemic dissemination of pneumococci out of the lungs (S. pneumoniae [1]) | bacterial load in the lung (S. pneumoniae [2]) | bacterial load in the spleen (S. pneumoniae [2]) | bacterial loads in the lung (S. pneumoniae [3]) | bacterial loads in the spleen (S. pneumoniae [3]) | survival rate of double-infected mice (S. pneumoniae [3]) | modulation of host defenses against respiratory bacterial and fungal infections [4]
CC(=O)O [acetate] | significantly reduced | lowered | significantly reduced | lower number | lowered | significant lower | significant lower | significantly reduced | significantly reduced | significant enhancement | 
CCC(=O)O [propionate] |  |  |  |  |  |  |  |  |  |  | failed to modulate
